Key:
[1] = LNP particle size and PDI (Malvern ZetaSizer); format: physicochemical; conditions: LNP of Compound:cholesterol:DSPC:DMG-PEG2000=50:38.5:10:1.5 encapsulating mRNA
Description: The mRNA stock solution was dispersed in 20 mM acetic acid solution (pH 5.0) to give a final concentration of 200 μg/mL (aqueous phase). […] The mRNA was mixed with the lipid mixture by T-mixing and controlling the flow rate of aqueous phase and oil phase (3:1) with a total flow rate of 12-50 ml/min, to obtain LNP-encapsulated mRNA. The encapsulated LNP was diluted with buffer (pH 5.0-5.5) and then concentrated by ultrafiltration with replacement of diluent, and finally LNP was concentrated to 200 μg/mL˜600 μg/mL of mRNA, while the pH of LNP was adjusted to about 7-8. […]

[2] = LNP mRNA encapsulation efficiency (Quant-iT RiboGreen RNA Assay Kit); format: physicochemical; conditions: LNP of Compound:cholesterol:DSPC:DMG-PEG2000=50:38.5:10:1.5 encapsulating mRNA
Description: The mRNA stock solution was dispersed in 20 mM acetic acid solution (pH 5.0) to give a final concentration of 200 μg/mL (aqueous phase). […] The mRNA was mixed with the lipid mixture by T-mixing and controlling the flow rate of aqueous phase and oil phase (3:1) with a total flow rate of 12-50 ml/min, to obtain LNP-encapsulated mRNA. The encapsulated LNP was diluted with buffer (pH 5.0-5.5) and then concentrated by ultrafiltration with replacement of diluent, and finally LNP was concentrated to 200 μg/mL˜600 μg/mL of mRNA, while the pH of LNP was adjusted to about 7-8. Finally, Quant-iT™ RiboGreen™ RNA Assay Kit (Invirtogen by Thermo Fisher Scientific, cat #R11490), and 10% Triton X-100 solution or 10% OTG solution as an emulsion breaker were used to detect the total and free content of mRNA in the LNP, and the encapsulation efficiency of LNP was calculated.

[3] = system: SD rats; assay: Toxicity assay: clinical markers 24 hours after intravenous LNP administration; format: in vivo; conditions: LNP intravenous 3 mg/kg, 24 hours after administration
Description: The nanoparticle samples containing different lipids were administered to rats (SD rats, Zhejiang Vital River Laboratory Animal Technology Co., Ltd, 3 males and 3 females per group, body weight: 220-300 g for female, 260-340 g for male) by intravenous injection at a dose of 3 mg/kg. The expression of various clinical markers was assessed at 24 hours after administration and compared with the expression induced by SM102 LNP formulation (i.e., LNP formulation made from the known SM102 lipid, which was prepared according to the method of Test Example 1 in the same ratio) as well as by phosphate buffered saline (PBS).

[4] = system: balb/c mice; assay: Extrahepatic delivery of Luciferase mRNA LNPs after intravenous injection, organ fluorescence (liver, spleen, stomach, intestine tract); format: in vivo; conditions: 20 μg LNP intravenous, 24 hours, FIGS. 2A-2D, compared with MC3 and Compound 20A groups
Description: Five balb/c mice (Zhejiang Vital River Laboratory Animal Technology Co., Ltd, female, 6-8 weeks old, 18-20 g) were taken as a group, labeled with a black marker pen on the tail with numbers 1 # to 5 #; five mice in each group were sequentially injected intravenously with 20 μg of the lipid nanoparticle composition. The lipid nanoparticle compositions of the present invention were prepared according to Test Example 1, in which Luciferase mRNA was encapsulated. A phosphate buffered saline (PBS) group was set up in parallel as a blank control, and an MC3 group was set up as a reference (obtained by preparation according to the method and ratio of Test Example 1).
Fluorescence assay was performed for each group of mice at 24 hours after intravenous administration of the samples ([…] YEASEN,LOT:D5330150, IP, 150 mg/kg was administered 10 minutes in advance for each group), the mice were anesthetized, and then put into a small animal living optical imaging system-IVIS® Lumina LT Series III according to the orders from tail mark 1 # to 5 #. The whole-body fluorescence was detected to evaluate the delivery and the expression of the prepared Luciferase mRNA.
At the end of the test, the mice were sacrificed by cervical dislocation, and the liver, spleen, stomach, and intestine tract were harvested, and the organs were discharged according to the corresponding positions from 1 # to 5 # for fluorescence detection of the organs.

[5] = system: rats; assay: Toxicity assay: serum ALT/AST and deaths after single intravenous dose of Luciferase mRNA LNPs; format: in vivo; conditions: LNP intravenous single dose 3 mg/kg; for aspartate aminotransferase and alanine aminotransferase values compared with MC3 and SM102 groups: serum 24 hours after administration, FIGS. 3A-3B; for animals that died during the test: five animals per group
Description: Animals were grouped according to body weight (five animals per group) one day before administration (Zhejiang Vital River Laboratory Animal Technology Co. Ltd, male, body weight: 170-220 g). […] Luciferase mRNA was encapsulated in said lipid nanoparticle compositions.
The administration volume is 10 mL/kg, and the administration dosage is 3 mg/kg.

| Compound | PDI [1] | Particle Size [1] [nm] | Encapsulation Efficiency [2] [%] | Alanine transaminase [3] [U/L] | Aspartate transaminase [3] [U/L] | extrahepatic delivery effect [4] | aspartate aminotransferase and alanine aminotransferase values compared with MC3 and SM102 groups [5] | animals that died during the test [5] |
| --- | --- | --- | --- | --- | --- | --- | --- | --- |
| CCCCCCCCCCC(=O)OCCCCCCC1(CCCCCCCC(=O)OC(CCCCCCCC)CCCCCCCC)OC[C@H](CCN(C)C)O1 (some centres unmarked) [Compound 5A] | 0.1311 | 73.41 | 96.0 | – | – | significant extrahepatic delivery effects | lower than those of the groups of the ionizable lipids MC3 and SM102 | – |
| CCCCCCCCCCCOC(=O)CCCCCC1(CCCCCCCC(=O)OC(CCCCCCCC)CCCCCCCC)OC[C@H](CCN(C)C)O1 (some centres unmarked) [Compound 2A] | 0.02967 | 86.26 | 96.44 | – | – | significant extrahepatic delivery effects | lower than those of the groups of the ionizable lipids MC3 and SM102 | – |
| CCCCCCCCCCC(=O)OCCCCCCC1(CCCCCCCC(=O)OC(CCCCCCCC)CCCCCCCC)OCC(CCN(C)C)O1 (centres unmarked) [Compound 5] | 0.04107 | 89.54 | 94.92 | 65.72 | 251.10 | – | – | – |
| CCCCCC(CCCCC)CCOC(=O)CCCCCCCC1(CCCCCCCC(=O)OCCC(CCCCC)CCCCC)OC[C@H](CCN(C)C)O1 [Compound 20A] | 0.073 | 85.64 | 92.5 | – | – | – | – | all five rats in Compound 20A group died |
| CCCCCCCCCCCOC(=O)CCCCCC1(CCCCCCCC(=O)OC(CCCCCCCC)CCCCCCCC)OCC(CCCN(C)C)O1 (centres unmarked) [Compound 13] | 0.16 | 98.15 | 89.3 | – | – | significant extrahepatic delivery effects | lower than those of the groups of the ionizable lipids MC3 and SM102 | – |
| CCCCCCCCCCCOC(=O)CCCCCC1(CCCCCCCC(=O)OC(CCCCCCCC)CCCCCCCC)OCC(CCN(CC)CC)O1 (centres unmarked) [Compound 11] | 0.06 | 80.34 | 97.5 | – | – | – | – | – |
| CCCCC/C=C\C/C=C\CCCCCCCCC(CCCCCCCC/C=C\C/C=C\CCCCC)OC(=O)CCCN(C)C [MC3, reference compound] | 0.15 | 72.70 | 96.7 | – | – | – | – | four rats in the MC3 group died |
| CCCCCCCCCCCOC(=O)CCCCCC1(CCCCCCCC(=O)OC(CCCCCCCC)CCCCCCCC)OCC(CCN(C)CC)O1 (centres unmarked) [Compound 10] | 0.07 | 78.44 | 96.5 | – | – | – | – | – |
| CCCCCCCCCCC(=O)OCCCCCCC1(CCCCCCCC(=O)OC(CCCCCCCC)CCCCCCCC)OC[C@@H](CCN(C)C)O1 (some centres unmarked) [Compound 5B] | 0.04848 | 67.95 | 98.4 | – | – | – | – | – |
| CCCCCCCCC(CCCCCCCC)CC(=O)CCCCCCCC1(CCCCCCCC(=O)OC(CCCCCCCC)CCCCCCCC)OCC(CCN(C)C)O1 (centres unmarked) [Compound 18] | 0.10 | 69.23 | 96.5 | – | – | – | – | – |

More lines, main results first:

| PDI [1] | Particle Size [1] [nm] | Encapsulation Efficiency [2] [%] | Compound | Alanine transaminase [3] [U/L] | Aspartate transaminase [3] [U/L] | extrahepatic delivery effect [4] | aspartate aminotransferase and alanine aminotransferase values compared with MC3 and SM102 groups [5] | animals that died during the test [5] |
| --- | --- | --- | --- | --- | --- | --- | --- | --- |
| 0.03 | 71.68 | 97.6 | CCCCCCCCCCCOC(=O)CCCCCC1(CCCCCCCC(=O)OC(CCCCCCCC)CCCCCCCC)OCC(CCN(CC)C(C)C)O1 (centres unmarked) [Compound 16] | – | – | – | – | – |
| 0.16 | 118.1 | 90.97 | CCCCCCCCCCCOC(=O)CCCCCC1(CCCCCCCC(=O)OC(CCCCCCCC)CCCCCCCC)OCC(CCCCN(C)C)O1 (centres unmarked) [Compound 14] | – | – | – | – | – |
| 0.1537 | 92.38 | 96.52 | CCCCCCCCCCC(=O)OCCCCCCC1(CCCCCCCCOC(=O)C(CCCCCCCC)CCCCCCCC)OCC(CN(C)C)O1 (centres unmarked) [Compound 7] | – | – | – | – | – |
| 0.07 | 74.80 | 97.5 | CCCCCCCCCCCOC(=O)CCCCCN(CCO)CCCCCCCC(=O)OC(CCCCCCCC)CCCCCCCC [SM-102, reference compound] | 286.51 | 486.42 | – | – | – |
| 0.1387 | 69.03 | 96.23 | CCCCCCCCCCC(=O)OCCCCCCC1(CCCCCCCC(=O)OC(CCCCCCCC)CCCCCCCC)OCC(CN(C)C)CO1 (centres unmarked) [Compound 4] | – | – | – | – | – |
| 0.34 | 110.3 | 93.3 | CCCCCCCCCCCOC(=O)CCCCCC1(CCCCCC(=O)OCCCCCCCCCCC)OCC(CCN(C)C)O1 (centres unmarked) [Compound 19] | – | – | – | – | – |
| 0.1676 | 69.85 | 95.50 | CCCCCCCCCCC(=O)OCCCCCCC1(CCCCCCCC(=O)OC(CCCCCCCC)CCCCCCCC)OCC(CN(C)C)O1 (centres unmarked) [Compound 6] | – | – | – | – | – |
| 0.3138 | 92.89 | 96.8 | CCCCCCCCC(CCCCCC)C(=O)OCCCCCCC1(CCCCCCOC(=O)C(CCCCCC)CCCCCCCC)OCC(CCN(C)C)O1 (centres unmarked) [Compound 21] | – | – | – | – | – |
| 0.10 | 61.73 | 97.2 | CCCCCCCCCCCOC(=O)CCCCCC1(CCCCCCCC(=O)OC(CCCCCCCC)CCCCCCCC)OCC(CCN(C)CCC)O1 (centres unmarked) [Compound 15] | – | – | – | – | – |
| 0.09334 | 99.68 | 90.99 | CCCCCCCCCCC(=O)OCCCCCCC1(CCCCCCCCOC(=O)C(CCCCCCCC)CCCCCCCC)OCC(CCN(C)C)O1 (centres unmarked) [Compound 8] | – | – | – | – | – |
| 0.05 | 125.0 | 98.2 | CCCCCCCCCCCNC(=O)CCCCCC1(CCCCCCCC(=O)NC(CCCCCCCC)CCCCCCCC)OCC(CCN(C)C)O1 (centres unmarked) [Compound 17] | – | – | – | – | – |
| 0.1264 | 95.04 | 95.04 | CCCCCCCCCCCOC(=O)CCCCCC1(CCCCCCCC(=O)OC(CCCCCCCC)CCCCCCCC)OCC(CN(C)C)O1 (centres unmarked) [Compound 3] | – | – | – | – | – |
| 0.03414 | 70.27 | 92.32 | CCCCCCCCCCCOC(=O)CCCCCC1(CCCCCCCC(=O)OC(CCCCCCCC)CCCCCCCC)OCC(CCN(C)C)O1 (centres unmarked) [Compound 2] | 116.27 | 342.17 | – | – | – |
| 0.1125 | 66.97 | 97.22 | CCCCCCCCCCCOC(=O)CCCCCC1(CCCCCCCC(=O)OC(CCCCCCCC)CCCCCCCC)OCC(CN(C)C)CO1 (centres unmarked) [Compound 1] | – | – | – | – | – |
| 0.1368 | 71.61 | 95.07 | CCCCCCCCCCC(=O)OCCCCCCC1(CCCCCCCCOC(=O)C(CCCCCCCC)CCCCCCCC)OCC(CN(C)C)CO1 (centres unmarked) [Compound 9] | – | – | – | – | – |

Reference: patent publication US12391662B2, “Lipid compounds and lipid nanoparticle compositions” (RINUAGENE BIOTECHNOLOGY CO., LTD., priority 2022, dated 2025)
